Consider 31 compounds from patent US12404239B2, “Modulators of BCL6 as ligand directed degraders” (Celgene Corporation, priority 2022, dated 2025).

For one assay, the target named is T1, BCL6 (Homo sapiens, UniProt P41182).
T1 construct: HiBiT-tag knocked into endogenous BCL6 locus using CRISPR; endogenous in cells; host or cells: DHL-4_BCL6_HiBiT cells (CRISPR knock-in)
Kind of assay: BCL6_HiBiT degradation assay (2 h). Type of assay: cell-based. The note with it: DHL-4_BCL6_HiBiT cells. How it is done:
A DHL-4 cell line with HiBiT-tag knocked into endogenous BCL6 locus using CRISPR was generated. The DHL-4_BCL6_HiBiT cells were dispensed into 384-well plates (Corning no. 3570) that were pre-spotted with compounds. Compounds were dispensed by an acoustic dispenser (ATS acoustic transfer system from EDC Biosystems) into a 384-well plate in a 10-point dose response curve using 3-fold dilutions starting at 1-10 μM and going down to […]. 25 μL of media (RPMI-1640+10% heat inactivated FBS+1×Pen/Strep) containing 2500 of DHL-4 was dispensed per well. Assay plates were incubated at 37° C. with 5% CO2 for 2 hours. After incubation, 25 μL of the Nano-Glo HiBiT lytic detection working solution (Promega, catalogue no. N3040, Madison, WI) was added to each well and incubated at room temperature for 15-30 min, protected from light. After 30 min, luminescence was read on an Envision or PHERAstar luminescence reader. To determine the EC50 value (the half-maximum effective concentration) and the level of the gradation (Yconstant) of a BCL6 degrader, luminescent signal normalized by DMSO control (Y) and compound concentration (x) was fitted using a four-parameter dose-response model (Y=(A+((B−A)/1+((C/x)^D) in Dotmatics. Fitted value C is the degradation EC50 and the minimum value A is the Y constant.
The degradation of BCL6 at 2 h in DHL-4 results are shown in Table 5, where EC50 is the half maximal effect and Ycon is the % remaining maximal effect.
(The HiBiT peptide binds its large partner to form an active luciferase.)
Consider `CC1CN(c2ncc(Cl)c(Nc3ccc4c(c3)CC(=O)N4C)n2)CCCC1Nc1ccc2c(C3CCC(=O)NC3=O)nn(C)c2c1` (single isomer, unassigned) [Example 50, 3-(6-((1-(5-chloro-4-((1-methyl-2-oxoindolin-5-yl)amino)pyrimidin-2-yl)-3-methylazepan-4-yl)amino)-1-methyl-1H-indazol-3-yl)piperidine-2,6-dione], for which the “YCon (% remaining maximal effect)” value is “(>60%)”. For the compound `CC1CN(c2ncc(Cl)c(Nc3ccc4c(c3)CC(=O)N4C)n2)CCCC1Nc1ccc2c(C3CCC(=O)NC3=O)nn(C)c2c1` (single isomer, unassigned) [Example 51, 3-(6-((1-(5-chloro-4-((1-methyl-2-oxoindolin-5-yl)amino)pyrimidin-2-yl)-3-methylazepan-4-yl)amino)-1-methyl-1H-indazol-3-yl)piperidine-2,6-dione], the “YCon (% remaining maximal effect)” value is “^^ (20-60%)”. Still for that read-out and setting: the same measure for `CN1C(=O)Cc2cc(Nc3nc(N4CCC(Nc5ccc6c(C7CCC(=O)NC7=O)nn(C)c6c5)CC4)ncc3Cl)ccc21` (single isomer, unassigned) [Example 53]: “^^ (20-60%)”; for `CN1C(=O)Cc2cc(Nc3nc(N4CCC(Nc5ccc6c(C7CCC(=O)NC7=O)nn(C)c6c5)CC4)ncc3Cl)ccc21` (single isomer, unassigned) [Example 54]: “(>60%)”.

The same assay, now with this note: DHL-4_BCL6_HiBiT cells, read-out: YCon (% remaining maximal effect).
For the compound `CN1C(=O)Cc2cc(Nc3nc(N4CC[C@H](Nc5ccc6c(C7CCC(=O)NC7=O)nn(C)c6c5)[C@H](C(F)(F)F)C4)ncc3Cl)ccc21` (relative stereo) [Example 147, rel-3-(6-(((3R,4S)-1-(5-chloro-4-((1-methyl-2-oxoindolin-5-yl)amino)pyrimidin-2-yl)-3-(trifluoromethyl)piperidin-4-yl)amino)-1-methyl-1H-indazol-3-yl)piperidine-2,6-dione], the Percent BCL6 remaining at maximal degradation (Ycon) is over 60%. The same measure, in the same setting: to `CC1CCN(c2ncc(Cl)c(Nc3ccc4c(c3)CC(=O)N4C)n2)CCC1Nc1ccc2c(C3CCC(=O)NC3=O)nn(C)c2c1` (single isomer, unassigned) [Example 48, 3-(6-((1-(5-chloro-4-((1-methyl-2-oxoindolin-5-yl)amino)pyrimidin-2-yl)-5-methylazepan-4-yl)amino)-1-methyl-1H-indazol-3-yl)piperidine-2,6-dione] belongs over 60%. Take `C[C@@H]1CN(c2ncc(Cl)c(Nc3ccc4c(c3)CC(=O)N4C)n2)CC[C@H]1Nc1ccc2c([C@H]3CCC(=O)NC3=O)nn(C)c2c1` (single isomer, unassigned) [Example 71]: the Percent BCL6 remaining at maximal degradation (Ycon) was under 20%. As for `C[C@@H]1CN(c2ncc(Cl)c(Nc3ccc4c(c3)CC(=O)N4C)n2)CC[C@H]1Nc1ccc2c([C@@H]3CCC(=O)NC3=O)nn(C)c2c1` (single isomer, unassigned) [Example 72], the Percent BCL6 remaining at maximal degradation (Ycon) is under 20%. Take `COCCN1C(=O)Cc2cc(Nc3nc(N4CC[C@@H](Nc5ccc6c([C@H]7CCC(=O)NC7=O)nn(C)c6c5)[C@H](C)C4)ncc3Cl)ccc21` (single isomer, unassigned) [Example 76]: the Percent BCL6 remaining at maximal degradation (Ycon) is under 20%.

Take `COCCN1C(=O)Cc2cc(Nc3nc(N4CC[C@@H](Nc5ccc6c([C@@H]7CCC(=O)NC7=O)nn(C)c6c5)[C@H](C)C4)ncc3Cl)ccc21` (single isomer, unassigned) [Example 77]: the Percent BCL6 remaining at maximal degradation (Ycon) is under 20%.

With `C[C@@H]1CN(c2ncc(Cl)c(Nc3ccc4c(c3)CC(=O)N4C)n2)C[C@@H](C)N1c1ccc2c([C@H]3CCC(=O)NC3=O)nn(C)c2c1` (single isomer, unassigned) [Example 79], the Percent BCL6 remaining at maximal degradation (Ycon) lay within 20 to 60%. As for `C[C@@H]1CN(c2ncc(Cl)c(Nc3ccc4c(c3)CC(=O)N4C)n2)C[C@@H](C)N1c1ccc2c([C@@H]3CCC(=O)NC3=O)nn(C)c2c1` (single isomer, unassigned) [Example 80], the Percent BCL6 remaining at maximal degradation (Ycon) is over 60%. Turning to `C[C@H]1C[C@H](Nc2ccc3c([C@H]4CCC(=O)NC4=O)nn(C)c3c2)CCN1c1ncc(Cl)c(Nc2ccc3c(c2)CC(=O)N3C)n1` (single isomer, unassigned) [Example 82], the Percent BCL6 remaining at maximal degradation (Ycon) is under 20%. Same read-out and setting: the same measure for `C[C@H]1C[C@H](Nc2ccc3c([C@@H]4CCC(=O)NC4=O)nn(C)c3c2)CCN1c1ncc(Cl)c(Nc2ccc3c(c2)CC(=O)N3C)n1` (single isomer, unassigned) [Example 83]: 20 to 60%.

As for `C[C@H]1C[C@H](N(C)c2ccc3c([C@H]4CCC(=O)NC4=O)nn(C)c3c2)CCN1c1ncc(Cl)c(Nc2ccc3c(c2)CC(=O)N3C)n1` (single isomer, unassigned) [Example 87], the Percent BCL6 remaining at maximal degradation (Ycon) is over 60%.

For the compound `C[C@H]1C[C@H](N(C)c2ccc3c([C@@H]4CCC(=O)NC4=O)nn(C)c3c2)CCN1c1ncc(Cl)c(Nc2ccc3c(c2)CC(=O)N3C)n1` (single isomer, unassigned) [Example 88], the Percent BCL6 remaining at maximal degradation (Ycon) is over 60%. On the same count and under the same terms, the same measure for `CCN1C(=O)Cc2cc(Nc3nc(N4CCC(Nc5ccc6c([C@H]7CCC(=O)NC7=O)nn(C)c6c5)CC4)ncc3Cl)ccc21` (single isomer, unassigned) [Example 90]: over 60%; for `CCN1C(=O)Cc2cc(Nc3nc(N4CCC(Nc5ccc6c([C@@H]7CCC(=O)NC7=O)nn(C)c6c5)CC4)ncc3Cl)ccc21` (single isomer, unassigned) [Example 91]: over 60%; for `C[C@@H]1CN(c2ncc(Cl)c(Nc3cc4c(cc3F)N(C)C(=O)C4)n2)CC[C@H]1Nc1ccc2c([C@H]3CCC(=O)NC3=O)nn(C)c2c1` (single isomer, unassigned) [Example 93]: under 20%.

Consider `C[C@@H]1CN(c2ncc(Cl)c(Nc3cc4c(cc3F)N(C)C(=O)C4)n2)CC[C@H]1Nc1ccc2c([C@@H]3CCC(=O)NC3=O)nn(C)c2c1` (single isomer, unassigned) [Example 94], for which the Percent BCL6 remaining at maximal degradation (Ycon) is under 20%. The same measure, in the same setting: the same measure for `C[C@@H]1CN(c2ncc(Cl)c(Nc3cc(F)c4c(c3)CC(=O)N4C)n2)CC[C@H]1Nc1ccc2c([C@H]3CCC(=O)NC3=O)nn(C)c2c1` (single isomer, unassigned) [Example 96]: under 20%; for `C[C@@H]1CN(c2ncc(Cl)c(Nc3cc(F)c4c(c3)CC(=O)N4C)n2)CC[C@H]1Nc1ccc2c([C@@H]3CCC(=O)NC3=O)nn(C)c2c1` (single isomer, unassigned) [Example 97]: under 20%. Still for that read-out and setting: the same measure for `C[C@@H]1CN(c2ncc(Cl)c(Nc3ccc4c(c3F)CC(=O)N4C)n2)CC[C@H]1Nc1ccc2c([C@H]3CCC(=O)NC3=O)nn(C)c2c1` (single isomer, unassigned) [Example 99]: under 20%; for `C[C@@H]1CN(c2ncc(Cl)c(Nc3ccc4c(c3F)CC(=O)N4C)n2)CC[C@H]1Nc1ccc2c([C@@H]3CCC(=O)NC3=O)nn(C)c2c1` (single isomer, unassigned) [Example 100]: under 20%; for `C[C@@H]1CN(c2ncc(Cl)c(Nc3ccc4c(c3)CC(=O)N4CCN3CCOCC3)n2)CC[C@H]1Nc1ccc2c([C@H]3CCC(=O)NC3=O)nn(C)c2c1` (single isomer, unassigned) [Example 102]: under 20%.

For `C[C@@H]1CN(c2ncc(Cl)c(Nc3ccc4c(c3)CC(=O)N4CCN3CCOCC3)n2)CC[C@H]1Nc1ccc2c([C@@H]3CCC(=O)NC3=O)nn(C)c2c1` (single isomer, unassigned) [Example 103], the Percent BCL6 remaining at maximal degradation (Ycon) is under 20%. `CNCCN1C(=O)Cc2cc(Nc3nc(N4CC[C@@H](Nc5ccc6c([C@H]7CCC(=O)NC7=O)nn(C)c6c5)[C@H](C)C4)ncc3Cl)ccc21` (single isomer, unassigned) [Example 105]: the Percent BCL6 remaining at maximal degradation (Ycon) was under 20%. Regarding `CNCCN1C(=O)Cc2cc(Nc3nc(N4CC[C@@H](Nc5ccc6c([C@@H]7CCC(=O)NC7=O)nn(C)c6c5)[C@H](C)C4)ncc3Cl)ccc21` (single isomer, unassigned) [Example 106], the Percent BCL6 remaining at maximal degradation (Ycon) was under 20%. Still for that read-out and setting: to `C[C@@H]1CN(c2ncc(Cl)c(Nc3ccc4c(c3)CC(=O)N4CCC(C)(C)F)n2)CC[C@H]1Nc1ccc2c([C@H]3CCC(=O)NC3=O)nn(C)c2c1` (single isomer, unassigned) [Example 108] belongs under 20%. For `C[C@@H]1CN(c2ncc(Cl)c(Nc3ccc4c(c3)CC(=O)N4CCC(C)(C)F)n2)CC[C@H]1Nc1ccc2c([C@@H]3CCC(=O)NC3=O)nn(C)c2c1` (single isomer, unassigned) [Example 109], the Percent BCL6 remaining at maximal degradation (Ycon) is under 20%. On to `C[C@@H]1CN(c2ncc(Cl)c(Nc3ccc4c(c3)CC(=O)N4CC(C)(F)F)n2)CC[C@H]1Nc1ccc2c([C@H]3CCC(=O)NC3=O)nn(C)c2c1` (single isomer, unassigned) [Example 111], for which the Percent BCL6 remaining at maximal degradation (Ycon) is under 20%.
